According to the NIST ThermoML archive (doi:10.1016/j.fluid.2017.09.014):

Assay: xn = mol fraction of the nth substance listed
Conditions: Vibrating tube method

O=S=O [sulfur dioxide] + O=C=O
Conditions	mass density [kg/m3]
298.1 K, 34441 kPa, Liquid, x2 = 0.9478	1013.3
298.1 K, 35077 kPa, Liquid, x2 = 0.9478	1015.5
298.1 K, 35971 kPa, Liquid, x2 = 0.9478	1018.4
298.1 K, 36493 kPa, Liquid, x2 = 0.9478	1020.2
298.1 K, 37078 kPa, Liquid, x2 = 0.9478	1022
298.11 K, 7503 kPa, Liquid, x2 = 0.9478	829.8
298.11 K, 8006 kPa, Liquid, x2 = 0.9478	838.7
298.11 K, 8501 kPa, Liquid, x2 = 0.9478	846.7
298.11 K, 10505 kPa, Liquid, x2 = 0.9478	872.1
298.11 K, 11004 kPa, Liquid, x2 = 0.9478	877.7
298.11 K, 13010 kPa, Liquid, x2 = 0.9478	897.8
298.11 K, 13500 kPa, Liquid, x2 = 0.9478	902.3
298.11 K, 15011 kPa, Liquid, x2 = 0.9478	915.2
298.11 K, 15500 kPa, Liquid, x2 = 0.9478	919.1
298.11 K, 16016 kPa, Liquid, x2 = 0.9478	923
298.11 K, 16534 kPa, Liquid, x2 = 0.9478	926.8
298.11 K, 17024 kPa, Liquid, x2 = 0.9478	930.2
298.11 K, 17492 kPa, Liquid, x2 = 0.9478	933.3
298.11 K, 17978 kPa, Liquid, x2 = 0.9478	936.5
298.11 K, 18527 kPa, Liquid, x2 = 0.9478	939.8
298.11 K, 19025 kPa, Liquid, x2 = 0.9478	942.9
298.11 K, 19477 kPa, Liquid, x2 = 0.9478	945.6
298.11 K, 20051 kPa, Liquid, x2 = 0.9478	948.9
298.11 K, 20492 kPa, Liquid, x2 = 0.9478	951.5
298.11 K, 21501 kPa, Liquid, x2 = 0.9478	957
298.11 K, 23041 kPa, Liquid, x2 = 0.9478	965.2
298.11 K, 28987 kPa, Liquid, x2 = 0.9478	993.1
298.11 K, 29543 kPa, Liquid, x2 = 0.9478	994.8
298.11 K, 30013 kPa, Liquid, x2 = 0.9478	996.8
298.11 K, 30505 kPa, Liquid, x2 = 0.9478	998.9
298.11 K, 30997 kPa, Liquid, x2 = 0.9478	1000.7
298.11 K, 31516 kPa, Liquid, x2 = 0.9478	1002.6
298.11 K, 33949 kPa, Liquid, x2 = 0.9478	1011.6
298.11 K, 35494 kPa, Liquid, x2 = 0.9478	1016.9
298.11 K, 37574 kPa, Liquid, x2 = 0.9478	1023.6
298.11 K, 37960 kPa, Liquid, x2 = 0.9478	1024.8
298.11 K, 38545 kPa, Liquid, x2 = 0.9478	1026.6
298.11 K, 38913 kPa, Liquid, x2 = 0.9478	1027.8
298.11 K, 39519 kPa, Liquid, x2 = 0.9478	1029.5
298.11 K, 40060 kPa, Liquid, x2 = 0.9478	1031.1
298.12 K, 9508 kPa, Liquid, x2 = 0.9478	860.5
298.12 K, 10039 kPa, Liquid, x2 = 0.9478	866.6
298.12 K, 11504 kPa, Liquid, x2 = 0.9478	882.9
298.12 K, 12000 kPa, Liquid, x2 = 0.9478	887.9
298.12 K, 12503 kPa, Liquid, x2 = 0.9478	892.9
298.12 K, 14006 kPa, Liquid, x2 = 0.9478	906.7
298.12 K, 14500 kPa, Liquid, x2 = 0.9478	910.9
298.12 K, 40411 kPa, Liquid, x2 = 0.9478	1032.1
322.39 K, 392 kPa, Gas, x2 = 0.9503	7
322.39 K, 1252 kPa, Gas, x2 = 0.9503	22.2
322.39 K, 1707 kPa, Gas, x2 = 0.9503	31.7
322.39 K, 2008 kPa, Gas, x2 = 0.9503	37
322.39 K, 3512 kPa, Gas, x2 = 0.9503	70.9
322.39 K, 4009 kPa, Gas, x2 = 0.9503	82.8
322.39 K, 4519 kPa, Gas, x2 = 0.9503	96.9
322.39 K, 5017 kPa, Gas, x2 = 0.9503	111.5
322.39 K, 5528 kPa, Gas, x2 = 0.9503	127.9
322.39 K, 6019 kPa, Gas, x2 = 0.9503	145.7
322.39 K, 7009 kPa, Fluid (supercritical or subcritical phases), x2 = 0.9503	189.5
322.39 K, 7504 kPa, Fluid (supercritical or subcritical phases), x2 = 0.9503	218.4
322.4 K, 749 kPa, Gas, x2 = 0.9503	13.6
322.4 K, 1002 kPa, Gas, x2 = 0.9503	17.9
322.4 K, 1509 kPa, Gas, x2 = 0.9503	27.5
322.4 K, 2511 kPa, Gas, x2 = 0.9503	48.1
322.4 K, 3008 kPa, Gas, x2 = 0.9503	58.8
322.41 K, 6514 kPa, Fluid (supercritical or subcritical phases), x2 = 0.9503	166.3
322.41 K, 8037 kPa, Fluid (supercritical or subcritical phases), x2 = 0.9503	254.6
322.41 K, 8521 kPa, Fluid (supercritical or subcritical phases), x2 = 0.9503	307.2
322.41 K, 9006 kPa, Fluid (supercritical or subcritical phases), x2 = 0.9503	371
322.45 K, 9501 kPa, Fluid (supercritical or subcritical phases), x2 = 0.9503	460.8
322.46 K, 9992 kPa, Fluid (supercritical or subcritical phases), x2 = 0.9503	538
322.46 K, 30511 kPa, Fluid (supercritical or subcritical phases), x2 = 0.9503	905.8
322.46 K, 34988 kPa, Fluid (supercritical or subcritical phases), x2 = 0.9503	930.2
322.46 K, 35500 kPa, Fluid (supercritical or subcritical phases), x2 = 0.9503	933
322.46 K, 36061 kPa, Fluid (supercritical or subcritical phases), x2 = 0.9503	935.4
322.46 K, 36509 kPa, Fluid (supercritical or subcritical phases), x2 = 0.9503	937.7
322.46 K, 37005 kPa, Fluid (supercritical or subcritical phases), x2 = 0.9503	940.1
322.46 K, 37561 kPa, Fluid (supercritical or subcritical phases), x2 = 0.9503	942.4
322.47 K, 10501 kPa, Fluid (supercritical or subcritical phases), x2 = 0.9503	585
322.47 K, 29929 kPa, Fluid (supercritical or subcritical phases), x2 = 0.9503	902.4
322.47 K, 31027 kPa, Fluid (supercritical or subcritical phases), x2 = 0.9503	908.9
322.47 K, 31517 kPa, Fluid (supercritical or subcritical phases), x2 = 0.9503	912
322.47 K, 32536 kPa, Fluid (supercritical or subcritical phases), x2 = 0.9503	917.5
322.47 K, 33070 kPa, Fluid (supercritical or subcritical phases), x2 = 0.9503	920.6
322.47 K, 33539 kPa, Fluid (supercritical or subcritical phases), x2 = 0.9503	923.2
322.47 K, 34062 kPa, Fluid (supercritical or subcritical phases), x2 = 0.9503	925.5
322.47 K, 34511 kPa, Fluid (supercritical or subcritical phases), x2 = 0.9503	928
322.47 K, 38091 kPa, Fluid (supercritical or subcritical phases), x2 = 0.9503	945
322.47 K, 38434 kPa, Fluid (supercritical or subcritical phases), x2 = 0.9503	946.6
322.47 K, 39200 kPa, Fluid (supercritical or subcritical phases), x2 = 0.9503	950
322.47 K, 40947 kPa, Fluid (supercritical or subcritical phases), x2 = 0.9503	956.3
322.48 K, 20496 kPa, Fluid (supercritical or subcritical phases), x2 = 0.9503	829.2
322.48 K, 23049 kPa, Fluid (supercritical or subcritical phases), x2 = 0.9503	853.3
322.48 K, 25500 kPa, Fluid (supercritical or subcritical phases), x2 = 0.9503	871.4
322.48 K, 27026 kPa, Fluid (supercritical or subcritical phases), x2 = 0.9503	882.9
322.48 K, 28501 kPa, Fluid (supercritical or subcritical phases), x2 = 0.9503	892.7
322.48 K, 32039 kPa, Fluid (supercritical or subcritical phases), x2 = 0.9503	914.6
322.48 K, 39641 kPa, Fluid (supercritical or subcritical phases), x2 = 0.9503	951.7
322.48 K, 40153 kPa, Fluid (supercritical or subcritical phases), x2 = 0.9503	953.9
322.48 K, 40902 kPa, Fluid (supercritical or subcritical phases), x2 = 0.9503	956.7
322.49 K, 11003 kPa, Fluid (supercritical or subcritical phases), x2 = 0.9503	621.1
322.49 K, 18008 kPa, Fluid (supercritical or subcritical phases), x2 = 0.9503	800.3
322.49 K, 19008 kPa, Fluid (supercritical or subcritical phases), x2 = 0.9503	812.8
322.49 K, 20012 kPa, Fluid (supercritical or subcritical phases), x2 = 0.9503	824.3
322.49 K, 21007 kPa, Fluid (supercritical or subcritical phases), x2 = 0.9503	834.7
322.49 K, 21533 kPa, Fluid (supercritical or subcritical phases), x2 = 0.9503	839.7
322.49 K, 22009 kPa, Fluid (supercritical or subcritical phases), x2 = 0.9503	843.9
322.49 K, 22496 kPa, Fluid (supercritical or subcritical phases), x2 = 0.9503	848.2
322.49 K, 23500 kPa, Fluid (supercritical or subcritical phases), x2 = 0.9503	856.5
322.49 K, 24003 kPa, Fluid (supercritical or subcritical phases), x2 = 0.9503	860.4
